Data from patent EP4755886A1 (Chengdu Chipscreen Pharmaceutical Ltd., priority 2023, dated 2025).

Legend:
hERG = biological target: T1, hERG (Homo sapiens, UniProt Q12809); assay: hERG test (Predictor hERG Fluorescence Polarization Assay Kit); assay type: binding; conditions: for inhibition at 3.5 h, 10 µM: 10 µM test substance, three duplicate wells; for IC50: only 10 µM tested
T1 construct: purchased ThermoFisher Scientific PV5365
Outline: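 Fluorescence polarization tracer displacement using hERG membranes and Tracer Red, test compound at 10 µM final, E-4031 as positive control, triplicate wells. Incubated 3.5 h at 25 °C in the dark; mP read (G factor 2.14) and percent inhibition calculated.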

PK experiment in rats = assay type: in vivo; conditions: rat; SD male rats, PO 10 mg/kg, vehicle 0.5% MC/0.2% Tween 80, plasma
Experimental: The samples were analyzed by LC-MS/MS. […] Table 6. Pharmacokinetic parameters for rats

PK experiment in mice = conditions: mouse, plasma, po, 10 mg/kg
Experimental: Experimental materials: the experimental animals were healthy adult female BALB/c mice (provided by Sichuan Vital River Laboratory Animal Technology Co., Ltd.).
Administration mode and sample collection in mice: BALB/c female mice received oral intragastrical administration (10 mg/kg, vehicle: 0.5% methylcellulose/0.2% Tween 80), and 60 µL of whole blood from the venous plexus of the fundus of the mice at different time points was collected at 0.25 h, 0.5 h, 1 h, 2 h, 4 h, 6 h, 8 h, and 24 h after administration and centrifuged at 4000 rpm for 6 min to collect plasma.
10 µL of mouse plasma sample was added to 190 µL of acetonitrile solution containing an internal standard to precipitate protein. The mixture was vortexed for 10 min and centrifuged at 4000 rpm for 10 min. The supernatant was collected and added to a 96-well plate. The samples were analyzed by LC-MS/MS. The drug concentrations in the plasma of mice at different time points after intragastric administration of the example compounds were measured by an LC-MS/MS method, and the related pharmacokinetic parameters were calculated, such that the pharmacokinetic behavior of the compounds in the mice was studied, and the pharmacokinetic characteristics were evaluated.

[1] = test system: human large cell lung cancer cell line LU99; assay: Efficacy in LU99 xenograft mouse model; assay type: in vivo, Balb/c nude mice; conditions: PO, qd, 28 days
Experimental: The human large cell lung cancer cell line LU99 was purchased from Nanjing Cobioer Biosciences Co., Ltd. (CBP61512) and cultured in RPMI-1640 medium (Gibco) containing 10% fetal bovine serum (Gibco); the test substances were prepared into suspensions at concentrations of 0.3 mg/mL, 1 mg/mL, and 5 mg/mL using a 0.5% aqueous MC solution containing 0.2% Tween 80. Reference Example 6 (MRTX1719) was prepared into a 5 mg/mL clear solution using 40% PEG400 normal saline containing 2% DMSO.
LU99 cells in the logarithmic growth phase were digested, collected, and counted, and the cell density was adjusted to 2 × 10^7 cells/mL using a 1:1 serum-free medium and matrigel (Corning). 18-20 g of Balb/c nude mice (Beijing Huafukang Biotechnology Co., Ltd.) were inoculated subcutaneously with 100 µL of cell suspension per mouse. On day 12 after inoculation, animals with a mean tumor volume of 116 mm^3 were randomly grouped, with 7 animals in each group. The test substances were intragastrically administered at 3 mg/kg, 10 mg/kg, and 50 mg/kg once daily, and MRTX1719 was intragastrically administered at 50 mg/kg once daily. A vehicle (2% DMSO + 40% PEG400 + 58% normal saline) was intragastrically administered to the blank group at a dose of 10 mL/kg once daily. Administration was performed for 28 days in total.
After the animals were inoculated with LU99 cells, the tumor volume was measured 2-3 times a week, and the tumor volume was calculated based on length × width^2 × 0.5. On the day when the last administration was completed, except for the mice with tumor regression, which were subjected to discontinuation observation, the remaining mice were euthanized.
In the formula, VTt represents the tumor volume of the treatment group at each measurement, and VT0 represents the tumor volume measured when the treatment group is grouped; VCt represents the tumor volume of the model control group at each measurement, and VC0 represents the tumor volume measured when the model control group is grouped.
Data were analyzed using GraphPad Prism 9.0 software and expressed as Mean ± SEM (standard error). Pairwise comparisons between each administration group and the model control group were performed using one-way analysis of variance (ANOVA). Variance homogeneity was determined using the Brown-Forsythe method, and variance heterogeneity was determined using the Dunnett's T3 method. Table 8. Efficacy evaluation in LU99 xenograft mouse model

[2] = Human liver microsome stability; assay type: in vitro ADME; conditions: pH 7.4; human liver microsomes 0.5 mg/mL, compound 1 µM, NADPH 1 mM, 37 °C
Experimental: Experimental materials: human liver microsomes (purchased from BIOIVT);
PBS: 0.1 M KH2PO4 and K2HPO4 buffers, pH 7.4.
MgCl2: a certain amount of MgCl2 was weighed out and prepared into a 16 mM MgCl2 solution with PBS.
NADPH (Chinese name: reduced nicotinamide adenine dinucleotide phosphate, purchased from Sigma, Cat. No.: 481973-500 mg): a certain amount of NADPH was weighed out and a 4 mM solution of NADPH was prepared with a 16 mM MgCl2 solution, and the final incubation concentration was 1 mM.
Compounds: 4 µM solutions of the test compounds and positive compounds were prepared with PBS, and the final incubation concentration was 1 µM.
Liver microsomes (purchased from BIOIVT, Cat. No.: X008070): the liver microsomes were diluted to […] with PBS, and the final incubation concentration was 0.5 mg/mL.
The prepared test compound or positive compound was added to a test tube, and then the prepared NADPH was added. The mixture was mixed well. The mixture was pre-incubated in a thermostat incubator at 220 rpm at 37 °C for 5 min, and the prepared liver microsomes were added to start the reaction. All steps were performed in replicate wells. At 0 min, 15 min, 30 min, 45 min, and 60 min, a certain volume of glacial acetonitrile solution containing an internal standard was added to the corresponding tube to precipitate the protein. The mixture was vortexed for 5 min with shaking, and then centrifuged at 4000 rpm for 10 min. […] The samples were analyzed by LC-MS/MS.
The concentrations (peak area ratios) of the example compounds were determined by LC-MS/MS. Rate constants were obtained by plotting "Ln (residual amount of compound %)" versus "incubation time" in Excel, thereby calculating the half-lives and intrinsic clearances of the drugs and providing a basis for the prediction of the in-vivo clearance.
[formula] CLH = CLint × fu × Qh /(CLint×fu+Qh) [formula]
Stability in human liver microsomes

[3] = human, probe Predictor hERG Tracer Red

T1 sequence (Q12809 whole entry): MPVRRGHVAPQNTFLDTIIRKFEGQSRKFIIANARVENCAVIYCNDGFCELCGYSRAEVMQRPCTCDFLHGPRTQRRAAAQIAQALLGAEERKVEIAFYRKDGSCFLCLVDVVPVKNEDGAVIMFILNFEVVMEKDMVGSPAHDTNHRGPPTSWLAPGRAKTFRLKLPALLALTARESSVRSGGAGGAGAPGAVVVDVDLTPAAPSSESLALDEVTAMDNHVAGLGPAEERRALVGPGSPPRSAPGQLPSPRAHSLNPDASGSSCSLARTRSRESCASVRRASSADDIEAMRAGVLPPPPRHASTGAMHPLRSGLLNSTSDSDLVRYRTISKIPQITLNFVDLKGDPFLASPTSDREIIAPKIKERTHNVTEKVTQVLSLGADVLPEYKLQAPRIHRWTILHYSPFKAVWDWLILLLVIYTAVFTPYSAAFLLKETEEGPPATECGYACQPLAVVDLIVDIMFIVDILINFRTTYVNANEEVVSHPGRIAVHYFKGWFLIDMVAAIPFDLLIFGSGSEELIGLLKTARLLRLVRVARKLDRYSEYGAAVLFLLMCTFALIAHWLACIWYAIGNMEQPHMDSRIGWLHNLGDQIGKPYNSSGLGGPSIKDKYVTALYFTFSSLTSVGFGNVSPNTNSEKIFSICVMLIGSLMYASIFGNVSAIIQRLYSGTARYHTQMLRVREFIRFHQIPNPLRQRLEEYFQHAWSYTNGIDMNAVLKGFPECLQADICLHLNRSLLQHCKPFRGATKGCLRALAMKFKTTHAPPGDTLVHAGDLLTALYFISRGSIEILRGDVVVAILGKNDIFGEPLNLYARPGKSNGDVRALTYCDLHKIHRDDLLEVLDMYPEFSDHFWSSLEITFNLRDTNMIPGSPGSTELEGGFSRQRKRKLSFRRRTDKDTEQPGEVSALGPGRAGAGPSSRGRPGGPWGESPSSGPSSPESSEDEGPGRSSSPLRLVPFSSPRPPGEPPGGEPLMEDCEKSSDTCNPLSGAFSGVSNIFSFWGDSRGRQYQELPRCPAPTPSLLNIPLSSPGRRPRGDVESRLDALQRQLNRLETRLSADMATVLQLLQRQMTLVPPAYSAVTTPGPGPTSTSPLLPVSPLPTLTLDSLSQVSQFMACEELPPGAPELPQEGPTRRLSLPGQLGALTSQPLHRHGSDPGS

Compound | inhibition at 3.5 h, 10 µM (hERG; [3]) [%] | IC50 (hERG) [µM] | AUC(0-t) (PK experiment in rats) [ng·h/mL] | Cmax (PK experiment in rats) [ng/mL] | AUC(0-t) (PK experiment in mice; female, BALB/c) [ng·h/mL] | Cmax (PK experiment in mice; female, BALB/c) [ng/mL] | TGI ([1]; 3 mg/kg) [%] | Tumor volume ([1]; 3 mg/kg) [mm^3] | TGI ([1]; 10 mg/kg) [%] | Tumor volume ([1]; 10 mg/kg) [mm^3] | TGI ([1]; 50 mg/kg) [%] | Tumor volume ([1]; 50 mg/kg) [mm^3] | half-life at 1 µM [2] [h] | inhibition at 3.5 h, 10 µM (hERG; herg membrane fluorescence polarization) [%] | AUC(0-t) (PK experiment in mice) [ng·h/mL] | Cmax (PK experiment in mice) [ng/mL]
CN(C(=O)c1cc2c3c(c(N)nc2cc1Cl)COC3)[C@@H]1COc2cc(C#Cc3cnn(C4CC4)c3)ccc21 [Compound 43A, (S)-4-amino-7-chloro-N-(6-((1-cyclopropyl-1H-pyrazol-4-yl)ethynyl)-2,3-dihydrobenzofuran-3-yl)-N-methyl-1,3-dihydrofuro[3,4-c]quinoline-8-carboxamide] | 30.3 ± 29.9 | > 10 | 9650 ± 1170 | 1220 ± 417 | 32300 ± 3340 | 3420 ± 913 | 83.27 | 415.58 | 94.77 | 210.31 | 104.92 | 28.13 | 2.03 |  |  | 
CN(C(=O)c1cc2c(cc1F)nc(N)c1cnn(C)c12)[C@@H]1COc2cc(C#Cc3cnn(C)c3)ccc21 [Compound 5A, (S)-4-amino-7-fluoro-N,1-dimethyl-N-(6-((1-methyl-1H-pyrazol-4-yl)ethynyl)-2,3-dihydrobenzofuran-3-yl)-1H-pyrazolo[4,3-c]quinoline-8-carboxamide] |  | > 10 | 15600 ± 4640 | 2180 ± 777 |  |  | 81.96 | 438.73 | 95.20 | 202.05 | 103.12 | 60.72 | 1.11 | 27.7 | 15700 ± 1600 | 2220 ± 230
Cc1nn(C)cc1C#Cc1ccc2c(c1)OC[C@H]2N(C)C(=O)c1cc2c3c(c(N)nc2cc1Cl)COC3 [Compound 50A, (S)-4-amino-7-chloro-N-(6-((1,3-dimethyl-1H-pyrazol-4-yl)ethynyl)-2,3-dihydrobenzofuran-3-yl)-N-methyl-1,3-dihydrofuro[3,4-c]quinoline-8-carboxamide] | 22.4 | > 10 |  |  |  |  |  |  |  |  |  |  | 0.832 |  |  | 
